For this series the following is noted: 298 K; 101.33 kPa; Crystal; X-ray diffraction.

SMILES strings stand for the structures. ± gives the expanded uncertainty stated by the source.

These results are taken from the NIST ThermoML archive (doi:10.1016/j.jct.2019.04.021).

By mass density is commonly meant mass per unit of volume.

As to `[O-2].[O-2].[O-2].[Pr+3].[Pr+3]` [praseodymium oxide (Pr2O3)], the mass density was determined as 7060.5 ± 7.2 kg/m3.
